Test results: US10703751B2, “Amino-imidazopyridine derivatives as Janus kinase inhibitors and pharmaceutical use thereof” (LEO Pharma A/S, priority 2017, dated 2020)
Where two headings read alike, the source gives them in different places.

Tests used:
JAK2 = JAK2 (Homo sapiens (Human), UniProt O60674); assay: JAK2 kinase assay (HTRF); type: biochemical; conditions: ATP at Km (4 μM)
Procedure: (§1) Human baculovirus-expressed Janus kinase (JAK) 1, 2, 3 and tyrosin kinase (TYK) 2 were purchased from Carna Biosciences, Inc (#08-144, -045, -046, -147 resp.). All four purified enzymes contain only the catalytic domain. JAK1 (aa 850-1154) and TYK2 (aa 871-1187) are expressed with an N-terminally fused GST-tag, and JAK2 and JAK3 with an N-terminally fused His-tag. Inhibition of phosphorylation of a synthetic peptide was measured in an HTRF-based assay (CisBio #62TKOPEC). First, 75 nL of test compound solution (100% DMSO) was added to a white shallow 384-well plate (NUNC #264706) using a Labcyte ECHO 550 liquid handler. Thereafter, 1 μL of compound dilution buffer (50 mM HEPES, 0.05% bovine serum albumin) and 2 μL of TK solution (TK substrate-biotin in kinase buffer [1× enzymatic buffer from HTRFKinEASE TK kit, 1 mM DTT]) was added. Then, 5 μL kinase-ATP mix (prepared in kinase buffer) was added to the wells and the plates were incubated at RT for 20 (JAK2, 3 and TYK2) to 40 (JAK1) min. For all four kinases a concentration of ATP that corresponded to the Km for ATP was used. The final concentrations of buffers, substrate, kinase and ATP were: JAK1: 50 mM Hepes buffer pH 7.0, 0.01% BSA, 10 mM MgCl2, 1 mM DTT, 7 μM ATP, 50 nM SEB, 1 μM TK Substrate-Biotin and 5 ng/well JAK1; JAK2: 50 mM Hepes buffer pH 7.0, 0.01% BSA, 5 mM MgCl2, 1 mM DTT, 4 μM ATP, 1 μM TK Substrate-Biotin and 0.1 ng/well JAK2; JAK3: 50 mM Hepes buffer pH 7.0, 0.01% BSA, 5 mM MgCl2, 1 mM DTT, 2 μM ATP, 1 μM TK Substrate-Biotin and 0.3 ng/well JAK3; TYK2: 50 mM Hepes buffer pH 7.0, 0.01% BSA, 5 mM MgCl2, 1 mM DTT, 13 μM ATP, 50 nM SEB, 1 μM TK Substrate-Biotin and 0.8 ng/well TYK2. Thereafter, the kinase reaction was stopped by adding 4 μL detection mix (final concentrations: 50 mM Hepes buffer pH 7.0, 0.01% BSA, 0.8 M KF, 20 mM EDTA, 42 nM Streptavidin-XL665 and 1:400 STK Ab Cryptate) and the plates were incubated overnight in the dark. A PerkinElmer Envision reader was used to quantify the HTRF signal using the following filters; 320 nm excitation filter, 665 nm emission filter and a 615 nm 2nd emission filter. A ratio ((665/615)×10^4) was calculated for each well.

STAT5 irfl-bla TF1 cells = assay: STAT5 assay (EPO stimulated reporter cells); type: cell-based; conditions: Homo sapiens, TF-1; erythropoietin (EPO) 10 ng/mL
Procedure: Twenty-five μL of a STAT5 irfl-bla TF1 (Invitrogen # K1219) cell suspension was seeded with a density of about 10,000 cells/well in 384-well Black View-plates (PerkinElmer #6007460) with clear bottom in assay medium (Opti-MEM (Invitrogen #11058-021)+0.5% heat inactivated fetal bovine Serum (Invitrogen #10082-147)+1% non-essential amino acids (Invitrogen #11140-050)+1% sodium pyruvate (Invitrogen #11360-070)+1% penicillin/streptomycin (Invitrogen #15140-122)). The cell plates were incubated overnight in a humidified 37° C. air/CO2 (95%/5%) incubator. The following day, 125 nL of solutions of test compounds and reference compounds were transferred to cell plates using the Labcyte Echo 550 liquid handler. The plates were then incubated for 1 h in a humidified 37° C. air/CO2 (95%/5%) incubator. Hereafter recombinant human erythropoietin (EPO) (Invitrogen # PHC9634) was added to the plates also using the Labcyte Echo 550 to a final concentration of 10 ng/mL. The cells were then incubated for 4½-5 h in a humidified 37° C. air/CO2 (95%/5%) incubator. 8 μL of LiveBLAzer substrate mixture (Invitrogen # K1095) were then added to the assay plates, which were then incubated overnight at RT. Fluorescence was then measured: Excitation: 405 nm; Emission: 460 nm (green channel), Emission: 535 nm (blue channel). Background was subtracted in both emission channels and the ratio 460/535 nm was calculated for each well.

JAK1 = JAK1 (Homo sapiens (Human), UniProt P23458); assay: JAK1 kinase assay (HTRF); type: biochemical; conditions: for JAK2/JAK1 ratio / JAK3/JAK1 ratio: ratio of the respective EC50
Procedure: as §1

TYK2 = TYK2 (Homo sapiens (Human), UniProt P29597); assay: TYK2 kinase assay (HTRF); type: biochemical
Procedure: as §1

JAK3 = JAK3 (Homo sapiens (Human), UniProt P52333); assay: JAK3 kinase assay (HTRF); type: biochemical
Procedure: as §1

STAT6 bla-RA1 cells = assay: STAT6 assay (IL-4 stimulated reporter cells); type: cell-based; conditions: for EC50: interleukin 4 10 ng/mL; for STAT5/STAT6 EC50 ratio (selectivity for STAT6 over STAT5): selectivity for STAT6 over STAT5, from EC50
Procedure: Twenty-five μL of a STAT6 bla-RA1 (Invitrogen # K1243) cell suspension was seeded with a density of 30-40,000 cells/well in 384-well Black View-plates (PerkinElmer #6007460) with clear bottom in assay medium (Opti-MEM (Invitrogen #11058-021)+0.5% heat inactivated fetal bovine Serum (Invitrogen #10082-147)+1% non-essential amino acids (Invitrogen #11140-050)+1% sodium pyruvate (Invitrogen #11360-070)+1% penicillin/streptomycin (Invitrogen #15140-122)); containing 550 ng/mL of CD40 ligand (Invitrogen # PHP0025). The cell plates were incubated overnight in a humidified 37° C. air/CO2 (95%/5%) incubator. The following day, 125 nL of solutions of test compounds and reference compounds were transferred to cell plates using the Labcyte Echo 550 liquid handler. The plates were then incubated for 1 h in a humidified 37° C. air/CO2 (95%/5%) incubator. Hereafter recombinant human interleukin 4 (Invitrogen # PHC0045) were added to the plates also using the Labcyte Echo 550 to a final concentration of 10 ng/mL. The cells were then incubated for 4½-5 h in a humidified 37° C. air/CO2 (95%/5%) incubator. 8 μL of LiveBLAzer substrate mixture (Invitrogen # K1095) were then added to the assay plates, which were incubated overnight at RT. Fluorescence was then measured: Excitation: 405 nm; Emission: 460 nm (green channel), Emission: 535 nm (blue channel). Background was subtracted in both emission channels and the ratio 460/535 nm was calculated for each well.

Chain of JAK1 (P23458 850-1154): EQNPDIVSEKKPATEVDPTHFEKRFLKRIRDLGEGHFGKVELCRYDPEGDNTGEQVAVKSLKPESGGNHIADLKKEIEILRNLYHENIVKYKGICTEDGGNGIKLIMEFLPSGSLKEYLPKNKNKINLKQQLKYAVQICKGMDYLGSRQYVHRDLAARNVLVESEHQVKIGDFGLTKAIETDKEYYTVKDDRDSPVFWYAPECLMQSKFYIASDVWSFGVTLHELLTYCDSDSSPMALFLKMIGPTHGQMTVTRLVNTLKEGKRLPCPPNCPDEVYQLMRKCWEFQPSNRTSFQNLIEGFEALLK
Chain of JAK2 (O60674 849-1124): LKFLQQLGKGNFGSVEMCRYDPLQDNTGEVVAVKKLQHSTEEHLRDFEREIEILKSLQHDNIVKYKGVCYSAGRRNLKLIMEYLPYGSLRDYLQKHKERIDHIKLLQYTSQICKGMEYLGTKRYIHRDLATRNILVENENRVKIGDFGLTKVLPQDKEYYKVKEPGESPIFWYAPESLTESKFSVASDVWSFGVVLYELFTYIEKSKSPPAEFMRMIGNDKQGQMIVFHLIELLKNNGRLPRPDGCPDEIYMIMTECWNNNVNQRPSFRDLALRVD
Chain of TYK2 (P29597 871-1187): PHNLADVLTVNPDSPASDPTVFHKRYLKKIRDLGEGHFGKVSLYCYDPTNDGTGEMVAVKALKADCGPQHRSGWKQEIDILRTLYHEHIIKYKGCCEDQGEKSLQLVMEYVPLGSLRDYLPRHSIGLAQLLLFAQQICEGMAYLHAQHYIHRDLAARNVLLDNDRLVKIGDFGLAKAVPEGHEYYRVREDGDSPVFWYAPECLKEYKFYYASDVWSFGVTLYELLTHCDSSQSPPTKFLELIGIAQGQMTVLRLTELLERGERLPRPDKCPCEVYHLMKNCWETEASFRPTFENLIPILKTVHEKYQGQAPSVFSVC
Chain of JAK3 (P52333 822-1111): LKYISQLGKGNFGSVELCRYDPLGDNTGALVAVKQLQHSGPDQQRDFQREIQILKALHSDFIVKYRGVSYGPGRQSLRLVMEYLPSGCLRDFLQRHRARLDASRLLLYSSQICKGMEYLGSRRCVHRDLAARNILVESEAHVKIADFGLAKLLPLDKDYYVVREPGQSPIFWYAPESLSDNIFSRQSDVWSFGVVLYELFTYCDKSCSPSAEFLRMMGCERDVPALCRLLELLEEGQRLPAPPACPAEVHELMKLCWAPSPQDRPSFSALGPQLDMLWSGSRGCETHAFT

| Compound | EC50 (JAK2) | EC50 (STAT5 irfl-bla TF1 cells) | EC50 (JAK1; ATP at Km (7 μM)) | JAK2/JAK1 ratio (JAK1) | JAK3/JAK1 ratio (JAK1) | EC50 (TYK2; ATP at Km (13 μM)) | EC50 (JAK3; ATP at Km (2 μM)) | EC50 (STAT6 bla-RA1 cells) | STAT5/STAT6 EC50 ratio (selectivity for STAT6 over STAT5) (STAT6 bla-RA1 cells) | EC50 (JAK1) | EC50 (TYK2) | EC50 (JAK3) |
| --- | --- | --- | --- | --- | --- | --- | --- | --- | --- | --- | --- | --- |
| CNc1cc2c(cn1)nc(C(C)O)n2[C@H]1CC[C@@H](CC#N)CC1 (stereo partly drawn) [Example 6, cis-2-[4-[2-[1-Hydroxyethyl]-6-(methylamino)imidazo[4,5-c]pyridin-1-yl]cyclohexyl]acetonitrile] | 2640 nM | > 49800 nM | 508 nM | 5.2 | 5.6 | 1110 nM | 2870 nM | 8570 nM | >5.8 | – | – | – |
| CNc1cc2c(cn1)nc([C@@H](C)O)n2[C@H]1CC[C@@H](CC#N)CC1 [Example 7, cis-2-[4-[2-[(1R)-1-Hydroxyethyl]-6-(methylamino)imidazo[4,5-c]pyridin-1-yl]cyclohexyl]acetonitrile] | 981 nM | > 49800 nM | 129 nM | 7.6 | 7.8 | 443 nM | 1010 nM | 3460 nM | >14 | – | – | – |
| [2H]C([2H])([2H])Nc1cc2c(cn1)nc([C@@H](C)O)n2[C@H]1CC[C@H](CC#N)CC1 [Example 4, trans-2-[4-[2-[(1R)-1-Hydroxyethyl]-6-(trideuteriomethylamino)imidazo[4,5-c]pyridin-1-yl]cyclohexyl]acetonitrile] | 153 nM | 7080 nM | – | 44 | 668 | – | – | 141 nM | 50 | 3.46 nM | 43 nM | 2310 nM |
| [2H]C([2H])([2H])C([2H])(O)c1nc2cnc(NC)cc2n1[C@H]1CC[C@H](CC#N)CC1 (stereo partly drawn) [Example 5, trans-2-[4-[2-[1,2,2,2-Tetradeuterio-1-hydroxyethyl]-6-(methylamino)imidazo[4,5-c]pyridin-1-yl]cyclohexyl]acetonitrile] | 301 nM | 9240 nM | – | 36 | 380 | – | – | 270 nM | 34 | 8.41 nM | 102 nM | 3200 nM |
| CNc1cc2c(cn1)nc([C@H](C)O)n2[C@H]1CC[C@H](CC#N)CC1 [Example 2, trans-2-[4-[2-[(1S)-1-Hydroxyethyl]-6-(methylamino)imidazo[4,5-c]pyridin-1-yl]cyclo-hexyl]acetonitrile] | 1130 nM | > 42600 nM | – | 25 | 221 | – | – | 1160 nM | >37 | 44.4 nM | 466 nM | 9820 nM |
| CNc1cc2c(cn1)nc(C(C)O)n2[C@H]1CC[C@H](CC#N)CC1 (stereo partly drawn) [Example 1, trans-2-[4-[2-[1-Hydroxyethyl]-6-(methylamino)imidazo[4,5-c]pyridin-1-yl]cyclohexyl]acetonitrile] | 530 nM | 14600 nM | 10.8 nM | 49 | 487 | 111 nM | 5260 nM | 237 nM | 62 | – | – | – |
